# According to patent US9718858B2, “Tunable control of protein degradation in synthetic and endogenous bacterial systems” (priority 2013, dated 2017):
# How the values were obtained:
# mf-Lon [1] = assay: E. coli-based GFP-pdt degradation platform, Example 2 (genomically integrated codon-optimized mf-Lon, flow cytometry); format: cell-based; details: for 50 ng/ml ATc (GFP fluorescence, untagged GFP set to 100) / 0 ng/ml ATc (GFP fluorescence, untagged GFP set to 100): GFP-pdt fusion in E. coli, flow cytometry, 6 hours; for 50 ng/ml ATc (GFP fluorescence, untagged GFP set to 100): mf-Lon induced with 50 ng/ml ATc; for 0 ng/ml ATc (GFP fluorescence, untagged GFP set to 100): no mf-Lon induction
# Procedure: Strains and Reagents. The E. coli K-12 derivative strain MG1655Pro (F-, λ-, Spr, lacI, tetR) published previously^2,42 was used as the wild-type strain in all cases except for the synthetic toggle experiments where the inventors used MG1655ΔlacIΔaraBAD, prepared as described in the herein. Unless otherwise noted, E. coli were grown in Luria broth (LB) at 30° C. with shaking and mf-Lon expression was induced with 50 ng/ml ATc. L. lactis strain […] was used for all L. lactis experiments and grown in M17 broth containing 0.5% glucose. Antibiotics carbenicillin (100 ug/ml), kanamycin (30 ug/ml) and erythromycin (10 ug/ml) were added to the media when appropriate. All plasmids and strain mutations were verified by sequencing, and plasmid maps will be deposited in GenBank.
# E. coli-Based Degradation Platform. The mf-lon gene was codon optimized for E. coli expression, placed under control of the PLtetO promoter, and integrated into the lacZ locus along with 5′ and 3′ transcriptional terminators to block unwanted mf-Lon expression from any proximal genomic promoters. The GFP variant GFPmut3b was used for all GFP expression, and GFP-pdt and mCherry-pdt variants were expressed from the constitutive PlacIq promoter on a high-copy plasmid containing the ColE1 origin and the kanamycin resistance cassette kanR.
# Flow Cytometry. Data for GFP and mCherry degradation dynamics were collected using an LSRFortessa cell analyzer equipped with a High Throughput Sampler (BD Biosciences), and data for the synthetic toggle switch were collected using a FACSArian flow cytometer (BD Biosciences). For each measurement, cells were fixed in 1% paraformaldehyde (PFA), held at 4° C. for up to 5 days, and then diluted 1:10 in PBS for analysis. At least 5,000 cells were collected for each measurement and FloJo (Treestar) was used for data analysis. […]
# mf-Lon [2] = assay: GFP-pdt degradation platform in E. coli, Example 1 (plasmid-borne aTc-inducible mf-Lon); format: cell-based; details: for Fold Degradation: 0 ng/ml aTc versus 50 ng/ml aTc; for 50 ng/ml aTc (GFP fluorescence, untagged GFP set to 100) / 0 ng/ml aTc (GFP fluorescence, untagged GFP set to 100): GFP-pdt fusion in E. coli, 10 h; for 50 ng/ml aTc (GFP fluorescence, untagged GFP set to 100): mf-Lon induced with 50 ng/ml aTc; for 0 ng/ml aTc (GFP fluorescence, untagged GFP set to 100): no mf-Lon induction
# Procedure: Strains, Plasmids and Reagents. The E. coli K-12 derivative strain MG1655Pro (F-, λ-, Sp^r, lacI, tetR) published previously^1,46 was used as the wild-type strain in all cases except for the synthetic toggle experiments where MG1655ΔlacIΔaraBAD was prepared and used as described herein. Unless otherwise noted, bacteria were grown in Luria broth (LB) at 30° with shaking and mf-Lon expression was induced with 50 ng/ml aTc. Antibiotics carbenicillin (100 ug/ml) and kanamycin (30 ug/ml) were added to the media when appropriate. All plasmids and strain mutations were verified by sequencing, and plasmid maps will be deposited in GenBank.
# GFP Degradation Platform. The GFP variant GFPmut3b^47 was used for all GFP expression. GFP-pdt variants were expressed from the constitutive PlacIq promoter^48 on a high-copy plasmid containing the ColE1 origin and a kanamycin-resistance cassette. The PLtetO promoter was used to express mf-Lon on a medium-copy plasmid containing the P15A origin and ampicillin-resistance cassette.
# Flow Cytometry. GFP expression was measured using a […] (BD BIOSCIENCES) flow cytometer with the following voltage settings: FCS, 340; SCS, 270; FITC (for GFP), 520; mCherry, 615. At least 10,000 cells were collected for each measurement and FloJo was used for data analysis.
# Plate Fluorimetry and Optical Density. Fluorescence and optical density measurements were made with a SPECTRAMAX M5 microplate reader (MOLECULAR DEVICES) using excitation and emission wavelengths of 488 nm and 520 nm, respectively, with an emission filter cutoff at 515 nm Optical density was measured at 600 nm (0D600). All measurements were made in 200 μl in 96-well clear bottom plates.
# PDT Mutagenesis Screens. Polymerase chain reaction (PCR) primers containing randomized nucleotides were used to mutagenize the indicated pdt codons. Plasmids containing the mutagenized tags fused to gfp were co-transformed with the mf-Lon expression plasmid into MG1655Pro. Transformants were picked into 96-well plates, grown to mid-log phase, diluted 1:20 into media with and without 50 ng/ml aTc and measured by plate reader after 10 h growth.
# [3] = system: synthetic toggle switch (LacI/TetR); assay: Protease-driven control of a synthetic toggle switch, Example 2; format: cell-based, E. coli
# Procedure: Flow Cytometry. Data for GFP and mCherry degradation dynamics were collected using an LSRFortessa cell analyzer equipped with a High Throughput Sampler (BD Biosciences), and data for the synthetic toggle switch were collected using a FACSArian flow cytometer (BD Biosciences). For each measurement, cells were fixed in 1% paraformaldehyde (PFA), held at 4° C. for up to 5 days, and then diluted 1:10 in PBS for analysis. At least 5,000 cells were collected for each measurement and FloJo (Treestar) was used for data analysis.
# Synthetic Toggle Switch. The plasmid pKDL071R8, based on pKDL07143, was altered to contain a weakened tetR ribosome binding site (RBS) to enhance toggle bistability in the minimal media conditions used. This plasmid served as the parental strain for all LacI-pdt toggle switch experiments. Pdt variants were fused to lad by overlapping PCR and cloned into pKDL071R8 using SacII and BsrGI. The arabinose inducible PBAD promoter was used to express mf-Lon from a second plasmid. Cells containing the toggle switch and mf-Lon expression plasmids were grown in 200 μl in 96-well round bottom plates at 37° C. in M9 minimal media containing 0.2% glycerol and 0.05% casamino acids, and care was taken to maintain exponential growth throughout the experiment. […]
Substance,"50 ng/ml ATc (GFP fluorescence, untagged GFP set to 100) (mf-Lon [1]) [%]","0 ng/ml ATc (GFP fluorescence, untagged GFP set to 100) (mf-Lon [1]) [%]","GFP-pdt remaining, % of its initial levels after mf-Lon expression (mf-Lon [1]) [%]",Fold Degradation (mf-Lon [2]),"50 ng/ml aTc (GFP fluorescence, untagged GFP set to 100) (mf-Lon [2]) [%]","0 ng/ml aTc (GFP fluorescence, untagged GFP set to 100) (mf-Lon [2]) [%]",drop in GFP following mf-Lon induction (mf-Lon [2]; from initial (steady-state) levels) [fold],"GFP-pdt levels compared with untagged GFP (mf-Lon [2]; late-log and stationary phase, constitutive expression, no mf-Lon)",toggle switching relative to LacI-pdt#3 [3]
"pdt#3E: Example 2: aa13-15 PDG, aa24-27 RRRV, SEQ ID NO 115 (AANKNEENTNEVPDGMLNAGQANRRRV)",87,112,–,–,–,–,–,–,–
"pdt#3C: Example 2: aa13-15 AQP, aa24-27 RRRV, SEQ ID NO 22 (AANKNEENTNEVAQPMLNAGQANRRRV)",48,107,–,–,–,–,–,–,–
"AANKNEENTNEVPTFMLNAGQANYAFA [pdt, reference compound]",1,50,3,20.7,0.6,12.5,21,markedly lower,–
"pdt#3B: Example 2: aa13-15 RAI, aa24-27 RRRV, SEQ ID NO 18 (AANKNEENTNEVRAIMLNAGQANRRRV)",38,100,–,–,–,–,–,–,provided temporal control over the circuit switch rate
"pdt#3D: Example 2: aa13-15 APN, aa24-27 RRRV, SEQ ID NO 19 (AANKNEENTNEVAPNMLNAGQANRRRV)",66,104,–,–,–,–,–,–,–
pdt#1 (AANKNEENTNEVPTFMLNAGQANRLQL),1,40,–,24.6,0.9,21.8,–,–,–
"pdt#3A: Example 2: aa13-15 FKL, aa24-27 RRRV, SEQ ID NO 114 (AANKNEENTNEVFKLMLNAGQANRRRV)",27,115,–,–,–,–,–,–,provided temporal control over the circuit switch rate
